Laboratory results published in PMC7651685 (Psychopharmacology, 2020).
Several values for one entry are separate records, joined by “and”; a condition that tells them apart may be missing. Identical values can stand only once.

What was measured:
[1] = system: dopamine transporters (DAT); assay: [18F]-FE-PE2I PET displacement: DAT occupancy, displacement half-time and brain entry (modified GRTM); type: in vivo, rhesus macaques (Macaca mulatta); conditions: for Brain entry time, Caudate / Brain entry time, Putamen / Brain entry time, Mean: modified GRTM; for Brain entry time, Mean: mean over animals and regions; for Percent maximum displacement (= % DAT occupancy), Caudate\Putamen mean, Mean ± SD: group mean of four animals
Method: Two male and two female rhesus macaques (Macaca mulatta) housed at the Yale University School of Medicine (New Haven, CT) were used for the [^18F]-FE-PE2I imaging. In all experiments, [^18F]-FE-PE2I was administered as a bolus plus constant infusion (Kbol from 168 to 216 min; total radioactivity = 162 ± 27 MBq) over 4 h to establish steady-state DAT binding. Bolus/infusion delivery parameters (i.e., Kbol) for [^18F]-FE-PE2I for each monkey were determined from baseline [^18F]-FE-PE2I scans that utilized single bolus intravenous injections of the radiotracer (Carson et al. [1993]). Identical procedures were used for list-mode image acquisition with a Siemens Focus 220 PET scanner for all DAT brain studies. The dynamic PET imaging series were reconstructed into 57 frames (6 × 0.5 min, 3 × 1 min, 2 × 2 min, and 46 × 5 min) using filtered back projection with standard corrections for random, scatter, and attenuation provided by the camera manufacturer.
At 2 h into the [^18F]-FE-PE2I scan, under tracer steady-state conditions, DAS or MPH was administered i.v. either as a 3 min i.v. bolus or as a bolus plus 4-step infusion over 40 min (four 10-min steps). The drug bolus experiments were carried out in all four rhesus macaques, each receiving DAS at 0.2 and 0.1 mg/kg and MPH at 0.5 and 0.1 mg/kg. The drug bolus plus 4-step infusion experiments were conducted in two rhesus macaques, each receiving DAS bolus injection over 30 s followed by a 4-step infusion over 40 min (four 10-min steps, 1.55, 1.45, 1.4, 1.3 mg) and MPH bolus injection over 30 s followed by an infusion over 40 min (four 10-min steps, 1.15, 1, 0.85, 0.75 mg).
Reconstructed dynamic PET images were transferred and analyzed using the image processing software package PMOD 3.6 (PMOD Technologies, Zurich, Switzerland). The PET images were normalized to an MR rhesus brain template (Rohlfing et al. [2012]) and a region of interest (ROI) atlas including the caudate nucleus, putamen, and cerebellar cortex was applied. Average activity concentration (kBq/cc) within each ROI was determined and time-activity curves (TAC) representing the regional brain activity concentration over time were generated. TACs were additionally expressed in SUV units (g/ml) by normalizing by the weight of the animal and the injected dose.
Reductions in radiotracer binding following administration of DAS or MPH were used to determine DAT occupancy while reductions in radiotracer binding over time were used to estimate brain entry and binding rates. The displacement half-time is defined as the time it takes from drug administration until 50% of maximal tracer displacement is achieved. Tracer displacement half-times were estimated using average uptake levels from the baseline and displacement experiments and expressing the change in standardized uptake values (SUV) units as a fraction (normalized) of the observed SUV difference at the end of the experiment. Normalized SUV values for caudate and putamen respectively were plotted against time for each dose of DAS and MPH respectively to estimate the drug displacement half-time.
Brain entry of DAS and MPH was determined by analyzing the [^18F]-FE-PE2I TACs in the putamen and caudate nucleus using a kinetic model using the cerebellar cortex as a reference region. The kinetic model is based on the generalized reference tissue model (GRTM; Votaw et al. [2002]) and a recent report of brain entry and binding rates measurement (Nicolas et al. [2016]). […] The half-life of the brain entry and binding of the drug was estimated as ln(2)/α. The kinetic model employs 5 parameters: R1, BPND, r, α, and k2′ where R1 is the relative tracer influx rate constant and k2′ is the reference tissue tracer efflux rate constant. The maximum occupancy was constrained to the measured displacement, while k2′ and α were constrained to a common value across the putamen and caudate nucleus.

[2] = Extrapolated permeability and half-time to reach brain equilibrium (equation of Liu et al.); conditions: 1/(P.fu,brain) with extrapolated permeability (DAS 12P, MPH P) and free plasma fraction
Excerpt: While lipid solubility and protein binding influences brain penetration, it appears that it is the combination of these two properties that influences the rate of brain penetration of a drug (Liu et al [2005]). […] The half-time to reach brain equilibrium (t1/2 equil) can be estimated by the following equation:
t1/2 equil = Vbln2/(PS.fu,brain)
where Vb is brain volume, PS is the permeability surface area product, P is the permeability rate, S is the surface area and fu is the unbound (free) drug brain concentration.
For comparative purposes between MPH and DAS, we can assume Vb and surface area are the same for both drugs, and the above equation becomes: t1/2equil∝1/P.fu,brain
As mentioned above, plasma protein binding of DAS and MPH are ~ 0.97 (or ~ 97%) and ~ 0.14 (or 14%) respectively, and the free plasma concentration of DAS is 0.03 and for MPH, it is 0.86. Since free drug plasma concentration is equal to free drug brain concentration, we can apply the free drug plasma concentration values of DAS and MPH together with the extrapolated permeability for DAS (12P) and MPH (P) to approximate t1/2 equil for both drugs, i.e.,

[3] = system: dopamine efflux in the nucleus accumbens; parameters: method as in Rowley et al. [2017]; conditions: rat nucleus accumbens microdialysis; ref Rowley et al. [2017]; cited from earlier work
DAT = conditions: ref DeLorenzo et al. [2011], cited from earlier work
[4] = cited from earlier work
[5] = system: efflux transporters of the ATP binding cassette (ABC) superfamily; conditions: LLC-PK1 cell monolayers and Xenopus Laevis Oocytes; Data-on-file; ref Sunovion Reports #531, 544, 575; cited from earlier work
plasma protein [6] = conditions: cited from earlier work
plasma protein [7] = assay: Plasma protein binding; conditions: from plasma protein binding
[8] = 0.1 mg/kg DAS, bolus administration, individual animals A-D
[9] = 0.2 mg/kg DAS, bolus administration, individual animals A-D
[10] = 6 mg DAS, bolus + 4 step infusion, individual animals A, B
[11] = DAS 0.1 mg/kg i.v. 3 min bolus, individual animals A-D
[12] = DAS 0.2 mg/kg i.v. 3 min bolus, individual animals A-D
[13] = DAS 6.0 mg, bolus plus 4-step infusion over 40 min, individual animals A, B

Which “Averaged displacement half-time (between caudate and putamen)” value ([1]; 0.1 mg/kg DAS i.v. bolus) does the source give for `N[C@@H]1CC[C@@H](c2ccc(Cl)c(Cl)c2)c2ccccc21` [DAS, (1R,4S)-4-(3,4-dichlorophenyl)-1,2,3,4-tetra-hydronaphthalen-1-amine] here?
The value was 40 min.

And the “Brain entry time, Caudate” value [1, 8]?
Its value is 18.91 min and 27.13 min and 25.06 min and 19.23 min.

And the “Brain entry time, Putamen” value [1, 8]?
Its value is 15.35 min and 18.83 min and 33.22 min and 19.5 min.

What about the “Brain entry time, Mean” value ([1]; 0.1 mg/kg DAS, bolus administration) of the same compound?
The value was 22 min and 22.15 ± 5.85 min and 22.15 min.

What about the “Averaged displacement half-time (between caudate and putamen)” value ([1]; 0.2 mg/kg DAS i.v. bolus) of the same compound?
Its value is 31 min.

What about the “Brain entry time, Caudate” value [1, 9] of the same compound?
Its value is 19.90 min and 19.65 min and 12.09 min and 13.12 min.

What about the “Brain entry time, Putamen” value [1, 9] of the same compound?
Its value is 11.47 min and 17.71 min and 12.60 min and 16.03 min.

And the “Brain entry time, Mean” value ([1]; 0.2 mg/kg DAS, bolus administration)?
The value was 15 min and 15.32 ± 3.45 min and 15.32 min.

And the “Brain entry time, Caudate” value [1, 10]?
Its value is 16.07 min and 16.34 min.

What about the “Brain entry time, Putamen” value [1, 10] of the same compound?
The value was 16.33 min and 18.57 min.

What about the “Brain entry time, Mean” value ([1]; 6 mg DAS, bolus + 4 step infusion) of the same compound?
Its value is 16.83 min.

What about the “Percent maximum displacement (= % DAT occupancy), Caudate\Putamen mean, Mean ± SD” value ([1]; DAS 0.1 mg/kg i.v. 3 min bolus) of the same compound?
The value was 54% and 54.48 ± 10.04%.

What about the “Percent maximum displacement (= % DAT occupancy), Caudate nucleus” value [1, 11] of the same compound?
Its value is 56.1% and 49.9% and 40.8% and 53.4%.

And the “Percent maximum displacement (= % DAT occupancy), Caudate\Putamen mean” value [1, 11]?
The value was 61.2% and 52.5% and 41.1% and 63.1%.

And the “Percent maximum displacement (= % DAT occupancy), Putamen” value [1, 11]?
Its value is 66.3% and 55.0% and 41.5% and 72.8%.

What about the “Percent maximum displacement (= % DAT occupancy), Caudate\Putamen mean, Mean ± SD” value ([1]; DAS 0.2 mg/kg i.v. 3 min bolus) of the same compound?
Its value is 68% and 68.13 ± 10.30%.

What about the “Percent maximum displacement (= % DAT occupancy), Caudate nucleus” value [1, 12] of the same compound?
Its value is 64.8% and 67.9% and 70.1% and 50.7%.

What about the “Percent maximum displacement (= % DAT occupancy), Caudate\Putamen mean” value [1, 12] of the same compound?
Its value is 76% and 72.5% and 71% and 53%.

What about the “Percent maximum displacement (= % DAT occupancy), Putamen” value [1, 12] of the same compound?
The value was 87.3% and 77.1% and 72% and 55.3%.

What about the “Percent maximum displacement (= % DAT occupancy), Caudate nucleus” value [1, 13] of the same compound?
The value was 83.7% and 82.0%.

And the “Percent maximum displacement (= % DAT occupancy), Caudate\Putamen mean” value [1, 13]?
Its value is 81.6% and 85.6% and 81.7%.

And the “Percent maximum displacement (= % DAT occupancy), Putamen” value [1, 13]?
The value was 87.4% and 81.3%.

And the “Percent maximum displacement (= % DAT occupancy), Caudate\putamen mean, Mean” value ([1]; DAS 6.0 mg, bolus plus 4-step infusion over 40 min, mean of two animals)?
Its value is 83.6%.

What about the “Brain entry / DAT occupancy rate slower than MPH” value ([1]; i.v. administration, DAS relative to MPH) of the same compound?
Its value is ~ 7 fold and 5-11 fold.

And the “DAT RO50 from this study” value ([1]; rhesus monkey, plasma level)?
The value was 3.5 ng/mL.

And the “t1/2equil (half-time to reach brain equilibrium), proportional to” value [2]?
Its value is 2.77 P.

What about the “Time to reach maximum effect on dopamine efflux post-dose” value [3] of the same compound?
The value was “up to 2 h”.

And the “Reported human DAT RO50” value (DAT; human, Hopkins et al. [2017])?
Its value is 4.5 to 6 ng/mL.

What about the “DAT occupancy OC50” value (DAT) of the same compound?
The value was 4 ng/mL.

And the “t1/2 (elimination)” value ([4]; human, in vivo, po)?
Its value is 47 to 77 h.

And the tmax ([4]; oral administration in humans)?
Its tmax is 10 to 12 h.

And the “Substrate for other efflux transporters of the ABC superfamily” value [5]?
Its value is “not a substrate”.

And the Plasma protein binding (plasma protein [6]; Data-on-file, ref Sunovion report 360–455)?
The Plasma protein binding was ~ 97%.

And the “Plasma protein binding (fraction)” value (plasma protein [6]; as fraction, Sunovion report 360–455 (DAS))?
Its value is ~ 0.97.

And the “Free plasma concentration (fraction)” value (plasma protein [7]; as fraction)?
Its value is 0.03.

And the Free plasma concentration (plasma protein [7])?
The Free plasma concentration was 3%.
